Measurements reported in patent publication US20260063641A1, “COMPOSITIONS AND METHODS FOR LABELING AND DETECTING BINDING PARTNERS” (UNIVERSITY OF UTAH RESEARCH FOUNDATION, priority 2022, published 2026).
“Also recorded” adds a separate entry of the source.

Columns and labels:
Format in all cases: cell-based
[1] = biological target: BRD2, BRD3 and BRD4 (BET proteins) and interactors (Homo sapiens, UniProt P25440); experiment: BioTAC proximity labeling with label-free mass spectrometry-based proteomics of streptavidin-enriched biotinylated proteins; conditions: 1 μM, 4 hr timepoint
BRD2, BRD3 and BRD4 (BET proteins) and interactors (Homo sapiens, UniProt P25440), sequence (P25440 whole entry): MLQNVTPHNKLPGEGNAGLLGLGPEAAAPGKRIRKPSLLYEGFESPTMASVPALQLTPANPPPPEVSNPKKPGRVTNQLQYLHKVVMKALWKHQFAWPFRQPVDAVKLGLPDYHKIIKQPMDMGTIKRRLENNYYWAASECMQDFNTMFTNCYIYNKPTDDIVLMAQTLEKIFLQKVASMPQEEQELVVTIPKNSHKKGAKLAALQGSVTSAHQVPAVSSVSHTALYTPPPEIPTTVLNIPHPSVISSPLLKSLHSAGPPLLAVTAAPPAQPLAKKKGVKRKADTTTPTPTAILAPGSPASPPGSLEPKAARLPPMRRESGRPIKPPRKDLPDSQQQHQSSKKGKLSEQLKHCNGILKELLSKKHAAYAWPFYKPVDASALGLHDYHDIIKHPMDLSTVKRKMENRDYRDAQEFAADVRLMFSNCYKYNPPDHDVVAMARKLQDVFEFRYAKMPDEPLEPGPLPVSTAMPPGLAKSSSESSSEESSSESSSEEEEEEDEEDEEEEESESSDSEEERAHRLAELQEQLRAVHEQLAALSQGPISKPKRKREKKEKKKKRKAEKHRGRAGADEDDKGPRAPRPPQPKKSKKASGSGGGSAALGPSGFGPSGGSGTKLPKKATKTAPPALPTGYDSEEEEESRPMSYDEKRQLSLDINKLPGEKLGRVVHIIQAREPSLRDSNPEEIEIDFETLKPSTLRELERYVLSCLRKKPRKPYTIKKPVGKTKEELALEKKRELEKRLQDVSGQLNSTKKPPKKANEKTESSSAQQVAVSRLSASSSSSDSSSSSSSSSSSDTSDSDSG
BRD2, BRD3 and BRD4 (BET proteins) and interactors (Homo sapiens, UniProt P25440), sequence (as listed by the source partner): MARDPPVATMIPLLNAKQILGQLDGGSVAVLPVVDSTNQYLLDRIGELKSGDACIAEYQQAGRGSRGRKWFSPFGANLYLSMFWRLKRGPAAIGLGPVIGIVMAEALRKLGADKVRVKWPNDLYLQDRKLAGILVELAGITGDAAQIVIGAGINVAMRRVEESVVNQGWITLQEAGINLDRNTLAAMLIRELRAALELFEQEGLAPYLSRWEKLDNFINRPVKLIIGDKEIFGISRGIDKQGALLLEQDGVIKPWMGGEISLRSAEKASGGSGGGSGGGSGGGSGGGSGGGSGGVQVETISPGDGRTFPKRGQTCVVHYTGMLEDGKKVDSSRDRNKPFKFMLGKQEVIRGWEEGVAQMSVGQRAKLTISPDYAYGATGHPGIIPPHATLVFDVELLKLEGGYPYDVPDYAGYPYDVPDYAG
Method: (§1) Having determined that the BioTAC system could identify BRD4 as a (+)-JQ1 target in focused screens, it was evaluated as an unbiased target-ID method. To identify direct binders of (+)-JQ1 proteome-wide, BioTAC proximity labelling experiments were performed as described above, followed by label-free mass spectrometry-based proteomic analysis of biotinylated proteins enriched following a 30 minute treatment with 100 μM biotin plus DMSO or 1 μM Cpd1, and then 1 μM Cpd1 off-competed by pre-treatment with 10 μM free (+)-JQ1.
(§2) Having established conditions for determining the primary targets of small molecules using the BioTAC system, its utility in reading out the interactome sphere of (+)-JQ1 bound BET-proteins was next investigated. An advantage of the BioTAC system is the relatively long half-life of the activated biotin-AMP intermediate generated by TurboID, allowing the labelling radius to be increased up to 35 nm by extending the labelling time. To quantitively evaluate the ability of the BioTAC system to successfully enrich the known interactome of (+)-JQ1 bound BET proteins, time course BioTAC proximity labelling experiments were performed at the 1 h and 4 h time points, and evaluated streptavidin-enriched biotinylated proteins using mass spectrometry-based proteomic analysis (FIG. 2A-C, FIG. 6). Longer time points correlated with a greater number of proteins meeting the significance cut-offs (defined as FC>2, P<0.05) for both enrichment in Cpd1 vs. DMSO, and competition with free (+)-JQ1 in Cpd1 vs. Cpd1+10 μM (+)-JQ1, (FIG. 2A, FIG. 6). […] Additionally, identified hit proteins at 1-4 hrs also included many known BET interactors, such as proteins found in components of the Pol II productive elongation complex subunit P-TEFb, the TFILD complex, and the Nucleosome Remodeling Deacetylase (NuRD) complex, as well as known BRD4 direct-binder Histone H4. […] To test this hypothesis the hits were compared to an extensive BET protein interactome reference dataset identified using AP/MS and proximity labelling coupled to mass spectrometry with and without (+)-JQ1. The BioTAC system afforded significant enrichment and off-competition (P<0.0001, one-way ANOVA) of identified reference interactors at the 4 h time point (FIG. 2B). Next it was asked whether the inverse could be performed, enriching complex members identified by Lambert et al. Mol Cell 73, 621-638 e617 (2019) directly from the data without any a priori knowledge of known interactors. It was discovered that 60% of the statistically significant enriched and (+)-JQ1 rescued hits were also present in the Lambert dataset. This observation falls greater than 7 standard deviations above a random bootstrap analysis of the data without filtering for significant enrichment and (+)-JQ1 rescue (FIG. 2C).
(§3) 9 million HEK293 cells were plated into 15 cm dishes containing 12 mL of complete media (DMEM, 10% FBS, 1% pen/strep) and incubated overnight. Cells were transiently transfected with 1 mL of OptiMEM media containing 10 μg of BioTAC plasmid and 30 μL of TransIT-2020 transfection reagent for 24 hr. Following a media change, cells were optionally pre-treated with parental molecules for 10 min, then treated with bifunctional compound for 10 min, and finally labeled in 100 μM biotin for 30 min, 1 hr, or 4 hrs. Cells were washed 5 times with DPBS then harvested by scraping on ice into 1.5 mL tubes. […] Lysates were clarified by centrifuging at 16,000×g for 10 min and protein concentration determined by BCA assay. […]

[2] = tested on: BRD2, BRD3 and BRD4 (BET proteins) and interactors; experiment: as above
Method: as §1, §2, §3

[3] = biological target: T1, NLuc-FKBP12F36V (Homo sapiens, UniProt P62942, F37V); experiment: FKBP12F36V cellular target engagement assay (competition with dTAG-13, NLuc/FLuc signal); conditions: mean±S.D. of n=3 technical replicates, FIG. 4D-F
T1 construct: expressed in transfected cells
T1 sequence (P62942 2-108 F37V limits assumed): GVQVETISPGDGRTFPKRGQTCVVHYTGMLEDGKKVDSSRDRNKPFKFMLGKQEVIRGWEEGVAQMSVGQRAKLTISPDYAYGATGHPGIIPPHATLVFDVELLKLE
Description: This method, named the biotin targeting chimera (BioTAC) system, uses bifunctional molecules composed of a compound-of-interest linked to selective FKBP12F36V recruiter orthoAP1867, to recruit a ligandable proximity labeling enzyme (mTurbo-FKBP12F36V) to compound-bound complexes enabling their biotinylation and subsequent affinity purification (FIG. TA-B). To benchmark the BioTAC system for accurate detection of the direct targets of ligands the well-characterized BET protein inhibitor (+)-JQ1, which potently binds BRD2, BRD3 and BRD4 (as well as the testes-specific BET protein BRDT), was selected as a test case. A series of bifunctional molecules consisting of (+)-JQ1 conjugated to […] were synthesized via a variable linker (FIG. 1B, FIG. 4A-C). (+)-JQ1-bifunctional molecule cell permeability was measured using an FKBP12F36V cellular target engagement assay adapted from Nabet et. al Nat Commun 11, 4687 (2020). Briefly, FKBP12F36V binding molecules compete with an FKBP12F36V targeting PROTAC (dTAG-13), for NLuc-FKBP12F36V occupancy, rescuing degradation and resulting in an increase in NLuc/FLuc (control) signal relative to DMSO-treated cells. All synthesized compounds were comparably cell permeable (FIG. 4D-E).

## CC[C@H](C(=O)N1CCCC[C@H]1C(=O)O[C@H](CCc1ccc(OC)c(OC)c1)c1ccccc1OCC(=O)NCCOCCOCCOCCNC(=O)C[C@@H]1N=C(c2ccc(Cl)cc2)c2c(sc(C)c2C)-n2c(C)nnc21)c1cc(OC)c(OC)c(OC)c1 [Cpd1, (R)-1-(2-((17-((S)-4-(4-Chlorophenyl)-2,3,9-trimethyl-6H-thieno[3,2-f][1,2,4]triazolo[4,3-a][1,4]diazepin-6-yl)-2,16-dioxo-6,9,12-trioxa-3,15-diazaheptadecyl)oxy)phenyl)-3-(3,4-dimethoxyphenyl)propyl (S)-1-((S)-2-(3,4,5-trimethoxyphenyl)butanoyl)piperidine-2-carboxylate]
[1]
  detection of BRD2 (proteomics): detected
[2]; 1 μM with DMSO, 10 μM or 100 μM (+)-JQ1, FC>3, P<0.05
  identification of BET-containing complexes (proteomics heatmap): identifies known BET-containing complexes
[2]; 1 μM, 30 min, 1 h and 4 h, vs DMSO and +10 μM (+)-JQ1, FC>2, P<0.05
  enrichment and off-competition of BRD3 and BRD4 (time course proteomics): significantly enriched and off-competed at all time points
[2]; 4 hr time point, P<0.0001, 1-way ANOVA
  fold-change of reference BRD2, BRD3 and BRD4 interactors (Lambert et al.), rescue by (+)-JQ1: statistically significant rescue
[2]; HEK293, 1 μM, 100 μM biotin, 30 min, vs DMSO and 10 μM (+)-JQ1 off-compete
  enrichment of BRD3 and BRD4 among biotinylated proteins (proteomics): Highly selective enrichment of known (+)-JQ1 targets BRD3 and BRD4; also recorded: significant enrichment of BRD3 and BRD4
[3]
  competitive displacement of dTAG-13 (FKBP12F36V cellular target engagement): competitive displacement of dTAG-13
